Entries after “also recorded” stand apart in the source; their conditions may differ.
Key:
[1] = target: T1, chondroitinase ABC (ChABC) (Proteus vulgaris, UniProt P59807, L125P); assay: relative enzyme inhibition assay of ChABC by selected polysaccharide (chondroitin sulfate C substrate, absorbance at 232 nm); assay type: biochemical; conditions: for Activity (apparent ChABC activity in presence of selected polysaccharide) / % rA (percentage of residual activity): 0.2% chondroitin sulfate C, 0.2% selected polysaccharide, 50 mM pH8 Tris HCl, 37° C., 20 min; for Activity (apparent ChABC activity in presence of selected polysaccharide): reference without polysaccharide 121 U/L; for % rA (percentage of residual activity): relative to assay without polysaccharide; for effect on ChABC enzyme activity (in words): equal amount of substrate (chondroitin sulfate C) and polysaccharide
Source text: There are several existing methods for quantitative study of protein-small molecule interactions such as differential scanning calorimetry, quartz crystal microbalance, fluorescence anisotropy, and the like. However, these methods require complex equipment, are expensive and time consuming, requiring protein immobilization or protein labeling. In order to save time and reduce costs, semi-quantitative assessment methods can be applied, such as enzyme inhibition assays. In the present invention, the relative binding affinity is evaluated by monitoring the inhibition of ChABC by the selected polysaccharide. The stronger the observed inhibitory effect, the higher the affinity between the ChABC and the polysaccharide. A more detailed experimental setup is shown in Example 1. […] Thus, heparin was identified as the most suitable ligand among the selected screened polysaccharides for constructing the affinity column.
In the present invention, it is necessary to identify molecules that have a similar structure to the substrate of ChABC but are inert to enzymatic degradation. In order to test polysaccharides that could actually bind to the active site of ChABC, a relative enzyme inhibition assay was conducted on the selected polysaccharide:
490 μL of the substrate solution was incubated at 37° C. for at least 15 minutes containing 0.2% chondroitin sulfate C, 0.2% selected polysaccharide and 50 mM pH8 Tris HCl buffer. 10 μL of ChABC with activity of about 100 U/L was incubated at 37° C. for at least 3 minutes. After incubation, the two solutions were gently mixed. The mixture was then incubated at 37° C. for 20 minutes to perform enzymatic degradation of chondroitin sulfate. After 20 minutes, the reaction was terminated by inactivating ChABC by heating at 100° C. for 2 minutes. In addition to inactivating the mixture immediately without incubation for 20 minutes, a blank control was performed in the same manner. The absorbance of the heat inactivated solution at 232 nm was then measured and the apparent activity was calculated as shown in Equation 1. The assay in the absence of selected polysaccharide was also conducted in the same manner as a reference.
[formula] • where • Abs=Difference in absorbance • =OD232nm in sample tubes−OD232nm in blank tubes • E=Millimolar extinction coefficient of unsaturated disaccharides from Chondroitin Sulfate C=5.5 • t=Reaction time=20 min • Vt=Total volume of the assay=0.5 mL • Vs=Volume of enzyme used=0.01 mL • DF=Dilution factor • 1000=Convert U/mL to U/L
[formula] • where • % rA=percentage of residual activity • A(poly)=the activity presence of selected polysaccharide • A(ref)=the […] of the assay without the presence of selected polysaccharide

[2] = target: T1, chondroitinase ABC (ChABC); assay: incubation of ChABC alone with heparin (change in absorbance, enzymatic degradation); assay type: biochemical; conditions: ChABC incubated alone with heparin; no change in absorbance
Source text: Therefore, immobilization of heparin as a ligand for affinity purification of ChABC is the most suitable choice among the selected polysaccharide derivatives.

T1 sequence (P59807 25-1021 L125P): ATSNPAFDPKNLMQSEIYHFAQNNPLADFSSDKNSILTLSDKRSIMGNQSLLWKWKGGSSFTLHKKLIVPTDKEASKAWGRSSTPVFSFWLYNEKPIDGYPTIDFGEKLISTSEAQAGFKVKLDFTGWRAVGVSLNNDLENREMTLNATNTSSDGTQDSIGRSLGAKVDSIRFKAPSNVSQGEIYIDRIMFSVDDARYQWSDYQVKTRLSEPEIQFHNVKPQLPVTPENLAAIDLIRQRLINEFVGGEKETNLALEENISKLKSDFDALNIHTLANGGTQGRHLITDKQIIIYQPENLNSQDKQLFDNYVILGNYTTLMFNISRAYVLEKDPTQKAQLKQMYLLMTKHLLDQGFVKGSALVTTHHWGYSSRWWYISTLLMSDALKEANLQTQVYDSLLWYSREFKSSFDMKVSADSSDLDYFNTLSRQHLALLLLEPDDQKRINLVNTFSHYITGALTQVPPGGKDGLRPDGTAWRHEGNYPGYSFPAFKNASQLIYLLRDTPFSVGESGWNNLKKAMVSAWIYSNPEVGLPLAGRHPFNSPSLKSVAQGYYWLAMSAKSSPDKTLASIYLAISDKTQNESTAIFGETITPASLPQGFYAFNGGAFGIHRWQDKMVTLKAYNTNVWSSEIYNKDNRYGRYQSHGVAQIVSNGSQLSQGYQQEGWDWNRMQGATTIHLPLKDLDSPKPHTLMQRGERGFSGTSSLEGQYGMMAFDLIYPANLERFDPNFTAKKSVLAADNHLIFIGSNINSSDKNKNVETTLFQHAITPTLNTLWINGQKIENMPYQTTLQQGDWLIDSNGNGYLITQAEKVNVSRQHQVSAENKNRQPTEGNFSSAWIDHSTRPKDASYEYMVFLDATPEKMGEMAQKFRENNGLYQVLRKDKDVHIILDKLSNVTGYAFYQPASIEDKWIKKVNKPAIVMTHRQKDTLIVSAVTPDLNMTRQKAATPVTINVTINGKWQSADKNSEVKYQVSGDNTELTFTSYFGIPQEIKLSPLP

| Substance | Activity (apparent ChABC activity in presence of selected polysaccharide) [1] [U/L] | % rA (percentage of residual activity) [1] [%] | effect on ChABC enzyme activity (in words) [1] | susceptibility to enzymatic degradation by ChABC [2] |
| --- | --- | --- | --- | --- |
| polygalacturonic acid | 117 | 97 | no significant effect on enzyme activity | – |
| Alginic acid | 119 | 98 | no significant effect on enzyme activity | – |
| heparin | 5.1 | 4.2 | almost completely inhibited ChABC activity; also recorded: strongest inhibitory effect on ChABC | not subject to the enzymatic degradation activity of ChABC |

Reference: patent US10214738B2, “Production of high purity chondroitinase ABC” (priority 2017, dated 2019)
